Measurements taken from PubChem BioAssay (NCI).
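48-hour exposure; five concentrations; linearly interpolated endpoints. Definition used: TGI = concentration required for complete inhibition of growth.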

Tests used:
Assay in all cases: NCI anticancer screen, dose series, 48 h
[1] = test system: MDA-MB-435
[2] = test system: HCT-15 colon
[3] = test system: NCI-H522 lung
[4] = test system: A498 renal
[5] = test system: MOLT-4 leukemia
[6] = test system: EKVX NSCLC
[7] = test system: MALME-3M melanoma
[8] = test system: HS 578T breast
[9] = test system: M14 melanoma
[10] = test system: UACC-62 melanoma
[11] = test system: COLO 205 colon
[12] = test system: 786-0 renal
[13] = test system: NCI-H226 lung
[14] = test system: HCT-116 colon
[15] = test system: OVCAR-4 ovarian
[16] = test system: ACHN renal
[17] = test system: CAKI-1 renal
[18] = test system: RPMI-8226 leukemia
[19] = test system: U251 CNS
[20] = test system: BT-549 breast

| SMILES | TGI [1] [µM] | TGI [2] [µM] | TGI [3] [µM] | TGI [4] [µM] | TGI [5] [µM] | TGI [6] [µM] | TGI [7] [µM] | TGI [8] [µM] | TGI [9] [µM] | TGI [10] [µM] | TGI [11] [µM] | TGI [12] [µM] | TGI [13] [µM] | TGI [14] [µM] | TGI [15] [µM] | TGI [16] [µM] | TGI [17] [µM] | TGI [18] [µM] | TGI [19] [µM] | TGI [20] [µM] |
| --- | --- | --- | --- | --- | --- | --- | --- | --- | --- | --- | --- | --- | --- | --- | --- | --- | --- | --- | --- | --- |
| Cc1cc(-c2ccc(Cl)cc2)c(C#N)c(=S)n1C1OC(CO)C(O)C(O)C1O (stereo not drawn) | > 100 | > 100 | > 100 | > 100 | > 100 | > 100 | > 100 | > 100 | > 100 | > 100 | > 100 | > 100 | > 100 | > 100 | > 100 | > 100 | > 100 |  |  |  |
| COc1ccc(-n2nnnc2C2(Nc3ccccc3)CCN(Cc3ccccc3)CC2)cc1 | 15.4 | 25.1 |  | 48.7 |  | 92 | 27.3 | 28.8 | 32 | 31.1 | 20 | 28 | > 100 | 26.2 | > 100 | > 100 |  | 48.5 | > 100 |  |
| CN(C)C1COC2Cc3ccccc3C1O2 (stereo not drawn) | > 100 | > 100 | > 100 | > 100 | > 100 | > 100 | > 100 | > 100 | > 100 | > 100 | > 100 | > 100 | > 100 | > 100 | > 100 | > 100 | > 100 | > 100 | > 100 |  |
| CC1=NN(c2ccccc2)C(=O)C1C(=O)C(=O)Nc1ccc(C)cc1C (stereo not drawn) |  | > 100 | > 100 | > 100 | > 100 | > 100 | > 100 | > 100 | > 100 | > 100 | > 100 | > 100 | > 100 | > 100 | > 100 | > 100 | > 100 | > 100 | > 100 |  |
| Clc1cccc(Cl)c1C1SCc2nc3ncccc3n21 (stereo not drawn) | > 100 | > 100 | > 100 | > 100 | > 100 | > 100 | > 100 | > 100 | > 100 | > 100 | > 100 | > 100 | > 100 | > 100 | > 100 | > 100 | > 100 | > 100 | > 100 |  |
| COC1=CC(=O)C2[C@H]3Cc4ccccc4[C@H]3C2(C)C1=O (stereo partly drawn) |  | > 100 | > 100 | > 100 | > 100 | > 100 | > 100 |  | > 100 | > 100 | > 100 | > 100 | > 100 |  | > 100 | > 100 | > 100 | > 100 | > 100 |  |
| CC(C)[C@H](NC(=O)[C@@H](O)[C@H](N)Cc1ccccc1)C(=O)N[C@@H](Cc1ccccc1)C(=O)O | > 100 | > 100 | > 100 | > 100 | > 100 | > 100 | > 100 | > 100 | > 100 | > 100 | > 100 | > 100 | > 100 | > 100 | > 100 | > 100 | > 100 | > 100 | > 100 |  |
| O=C1NCN(c2ccccc2)C12CCN(CCCSc1ccc(F)cc1)CC2 | 32.6 | > 100 | > 100 | 42.9 | > 100 | > 100 | 52.7 | > 100 | 21.7 | > 69 | 3.24 | > 100 | > 88 | 28.5 | > 96.6 | > 80.5 | > 91.9 | > 100 | > 100 |  |
| Cc1cc2nc3c(C#N)c(-c4ccccc4)cc(Nc4cccc(C(F)(F)F)c4)n3c2cc1C | 30.6 | 22.3 | 30.1 | 29.5 |  | 37.9 | > 100 |  | 60.3 |  | > 100 | 18.6 | 26.5 | 10.8 | 50.5 | 28.5 | 40.2 | > 100 |  | > 100 |
| O=C1CSc2ccncc2N1 |  | > 100 |  | > 100 | > 100 | > 100 | > 100 |  | > 100 | > 100 | > 100 | > 100 | > 100 | > 100 | > 100 | > 100 | > 100 |  | > 100 |  |
| COC(=O)c1c/c(=N\NC(=O)CC(=O)Nc2ccc(C)cc2)c2ccccc2o1 |  | > 100 | > 100 | > 100 | > 100 | > 100 | > 100 |  | > 100 | > 100 | > 100 | > 100 | > 100 | > 100 | > 100 | > 100 | > 100 | > 100 | > 100 |  |
| C=CCn1c(=S)sc2c(=O)[nH]cnc21 |  | > 100 | > 100 | > 100 | > 100 | > 100 | > 100 |  | > 100 | > 100 | > 100 | > 100 |  | > 100 | > 100 | > 100 | > 100 |  | > 100 |  |
| COC(=O)[C@]1(C)CCC[C@]2(C)C3CC4OOC3(C=C4C(C)C)CCC21 (stereo partly drawn) |  | 30.1 | 3.41 | 23.5 | 49.8 | 30.4 | 41.6 |  | 30.4 | 32.3 | 39.4 | 17.6 | 35.4 | 29 | 45.7 | 31.2 | 62.3 | 36 | 37.1 |  |
